Test results published in patent US8962844B2, “1,3,4-oxadiazole and 1,3,4-thiadiazole β-lactamase inhibitors” (priority 2012, dated 2015).
Structures can show the parent of a compound that is named as a salt.

Assays:
[1] = system: bacterial strains that express the class D cephalosporinase OXA-15; assay: Standard BLI potentiation MIC / synergy MIC (sMIC) assays run in the presence of a β-lactam, OXA-15 expressing strains; assay type: cell-based, E. coli; conditions: BLI in combination with a β-lactam; comparison with Avibactam (comparator compound CCC)
Description: (§1) Unless otherwise indicated, the activity of the BLI compounds can be described by the MIC value obtained from a Synergy MIC assay or a BLI potentiation assay (e.g as described herein), both of which are run in the presence of a β-lactam.
(§2) A set of β-lactamase expressing isogenic E. coli strains was constructed by cloning a β-lactamase gene into a customized derivative of pBR322 (GenBank Accession Number J01749) and transforming the engineered plasmids into E. coli. The NdeI restriction site within the plasmid backbone of pBR322 was removed to generate pBR322 ΔNdeI. The pBR322 ΔNdeI vector itself, minus the blaTEM-1 gene, was amplified using two primers: (1) pBR-Pbla 5′-cgcatatgactettectttttcaatattattg-3, SEQ ID 1, a primer with an engineered NdeI restriction site at the 3′ end of the blaTEM-1 promoter and (2) pBR-vec-1 5′-[…]-3′, SEQ ID 2, a primer with an engineered BamHI restriction site at the 3′ end of the blaTEM-1 open reading frame. The chloramphenicol resistance gene, cat, was generated by PCR amplification from pKD3 (GenBank Accession Number AY048742) using primers with an engineered NdeI restriction site at the 5′ end (Pbla-cat 5′-[…]-3′, SEQ ID 3) and an engineered BamHI restriction site at the 3′ end (Vec-1-cat 5′-[…]-3′, SEQ ID 4) of the resistance gene. The two PCR products, pBR322 ΔNdeI and cat were ligated together generating pBR-CBST (pBR322 ΔNdeI ΔTEM-1::cat Seq. ID 5) which retains both the pBR322 tetracycline resistance cassette, tetA, and the plasmid origin of replication but the blaTEM-1 gene was replaced by the cat gene.
(§3) Using this engineering strategy a number of plasmids producing β-lactamase genes from different classes (see below) were generated using synthetic genes with an engineered NdeI restriction site at the 5′ end and BamHI restriction site at the 3′ end of each gene (GenScript). Both the synthetic β-lactamase genes and cat gene were ligated into the NdeI/BamHI sites of the pBR322 ΔNdeI PCR product and transformed into electrocompetent E. coli ElectroMax DH10B (Invitrogen/Life Technologies). E. coli DH10B harboring the recombinant plasmids were selected on LB agar (supplemented with 25 μg/mL tetracycline) and single isolated colonies were then inoculated into 5 mL LB media (supplemented with 25 μg/mL tetracycline), and incubated at 37° C. with aeration (250 rpm) for 18 hrs. The cultures were frozen back at −80° C. in 20% glycerol. The DNA sequence of the cloned β-lactamase genes was confirmed. The β-lactamase gene expression in the recombinant E. coli strains was driven by the blaTEM-1 promoter in the pBR-CBST plasmid and was characterized by MIC profiling of the E. coli recombinant strains against comparator β-lactam/BLI combinations in broth microdilution assay.
(§4) The experimental protocol was performed according to Clinical and Laboratory Standards Institute (CLSI) guidelines with modifications as described below (CLSI guidelines can be derived from the CLSI document M07-A9 published in January 2012: “Methods for Dilution Antimicrobial Susceptibility Tests for Bacteria That Grow Aerobically; Approved Standard-Ninth Edition”).
(§5) To prepare for MIC testing, frozen glycerol stocks of clinical isolates (Klebsiella pneumoniae, Eschericia coli, Enterobacter spp, Citrobacter spp, or Pseudomonas aeruginosa) were used to streak for isolated colonies on rich, non-selective, tryptic soy agar containing 5% sheep's blood (TSAB). Frozen glycerol stocks of laboratory engineered, isogenic E. coli strains, which contain cloned β-lactamase expressing plasmids were used to streak for isolated colonies on rich, selective LB agar supplemented with 25 μg/mL tetracycline to maintain the plasmid. All strains were incubated at 37° C. for 18-24 hrs.
(§6) On the day of testing, primary cultures were started by scraping off 5-10 colonies from the TSAB plates containing clinical strains or the tetracycline supplemented LB plates containing engineered strains. […]

[2] = system: bacterial strains that express KPC β-lactamases; assay: Standard BLI potentiation MIC / synergy MIC (sMIC) assays run in the presence of a β-lactam, KPC expressing strains; assay type: cell-based; conditions: more active for at least one KPC strain and/or better spectrum of activity than Avibactam; BLI in combination with a β-lactam
Description: as §1, §2, §3, §4, §5, §6

Structure (SMILES)	activity against bacterial strains that express the class D cephalosporinase OXA-15, compared with Avibactam [1]	activity and/or spectrum of activity against bacterial strains that express KPC β-lactamases, compared with Avibactam [2]
O=C1N2C[C@@H](CC[C@H]2c2nnc(CNC3CNC3)o2)N1OS(=O)(=O)O [Compound 726, (2S,5R)-2-(5-((azetidin-3-ylamino)methyl)-1,3,4-oxadiazol-2-yl)-7-oxo-1,6-diazabicyclo[3.2.1]octan-6-yl hydrogen sulfate]	more active than Avibactam	more active than Avibactam
N[C@H]1C[C@H](c2nnc([C@@H]3CC[C@@H]4CN3C(=O)N4OS(=O)(=O)O)o2)C1 [Compound 727, (2S,5R)-2-(5-((1r,3S)-3-aminocyclobutyl)-1,3,4-oxadiazol-2-yl)-7-oxo-1,6-diazabicyclo[3.2.1]octan-6-yl hydrogen sulfate]	more active than Avibactam	more active than Avibactam
N[C@H]1C[C@@H](Cc2nnc([C@@H]3CC[C@@H]4CN3C(=O)N4OS(=O)(=O)O)o2)C1 [Compound 728, (2S,5R)-2-(5-(((1s,3R)-3-aminocyclobutyl)methyl)-1,3,4-oxadiazol-2-yl)-7-oxo-1,6-diazabicyclo[3.2.1]octan-6-yl hydrogen sulfate]	more active than Avibactam	more active than Avibactam
N[C@@H]1CC[C@H](c2nnc([C@@H]3CC[C@@H]4CN3C(=O)N4OS(=O)(=O)O)o2)C1 [Compound 729, (2S,5R)-2-(5-((1S,3R)-3-aminocyclopentyl)-1,3,4-oxadiazol-2-yl)-7-oxo-1,6-diazabicyclo[3.2.1]octan-6-yl hydrogen sulfate]	more active than Avibactam	more active than Avibactam
N=C(N)NCC(O)Cc1nnc([C@@H]2CC[C@@H]3CN2C(=O)N3OS(=O)(=O)O)o1 (stereo partly drawn) [Compound 730, (2S,5R)-2-(5-(3-guanidino-2-hydroxypropyl)-1,3,4-oxadiazol-2-yl)-7-oxo-1,6-diazabicyclo[3.2.1]octan-6-yl hydrogen sulfate]	more active than Avibactam	more active than Avibactam
N=C(N)NC[C@@H](O)c1nnc([C@@H]2CC[C@@H]3CN2C(=O)N3OS(=O)(=O)O)o1 [Compound 731, (2S,5R)-2-(5-((R)-2-guanidino-1-hydroxyethyl)-1,3,4-oxadiazol-2-yl)-7-oxo-1,6-diazabicyclo[3.2.1]octan-6-yl hydrogen sulfate]	more active than Avibactam	more active than Avibactam
N=C(N)NC[C@H](O)c1nnc([C@@H]2CC[C@@H]3CN2C(=O)N3OS(=O)(=O)O)o1 [Compound 732, (2S,5R)-2-(5-((S)-2-guanidino-1-hydroxyethyl)-1,3,4-oxadiazol-2-yl)-7-oxo-1,6-diazabicyclo[3.2.1]octan-6-yl hydrogen sulfate]	more active than Avibactam	more active than Avibactam
CNCCCc1nnc([C@@H]2CC[C@@H]3CN2C(=O)N3OS(=O)(=O)O)o1 [Compound 734, (2S,5R)-2-(5-(3-(methylamino)propyl)-1,3,4-oxadiazol-2-yl)-7-oxo-1,6-diazabicyclo[3.2.1]octan-6-yl hydrogen sulfate]	more active than Avibactam	more active than Avibactam
NCCCCc1nnc([C@@H]2CC[C@@H]3CN2C(=O)N3OS(=O)(=O)O)o1 [Compound 735, (2S,5R)-2-(5-(4-aminobutyl)-1,3,4-oxadiazol-2-yl)-7-oxo-1,6-diazabicyclo[3.2.1]octan-6-yl hydrogen sulfate]	more active than Avibactam	more active than Avibactam
O=C1N2C[C@@H](CC[C@H]2c2nnc(CCNCCO)o2)N1OS(=O)(=O)O [Compound 736, (2S,5R)-2-(5-(2-((2-hydroxyethyl)amino)ethyl)-1,3,4-oxadiazol-2-yl)-7-oxo-1,6-diazabicyclo[3.2.1]octan-6-yl hydrogen sulfate]	more active than Avibactam	more active than Avibactam
CC(C)(N)Cc1nnc([C@@H]2CC[C@@H]3CN2C(=O)N3OS(=O)(=O)O)o1 [Compound 737, (2S,5R)-2-(5-(2-amino-2-methylpropyl)-1,3,4-oxadiazol-2-yl)-7-oxo-1,6-diazabicyclo[3.2.1]octan-6-yl hydrogen sulfate]	more active than Avibactam	more active than Avibactam
N=C(N)Nc1nnc([C@@H]2CC[C@@H]3CN2C(=O)N3OS(=O)(=O)O)o1 [Compound 738, (2S,5R)-2-(5-guanidino-1,3,4-oxadiazol-2-yl)-7-oxo-1,6-diazabicyclo[3.2.1]octan-6-yl hydrogen sulfate]	more active than Avibactam	more active than Avibactam
N=C(N)NC1(Cc2nnc([C@@H]3CC[C@@H]4CN3C(=O)N4OS(=O)(=O)O)o2)CC1 [Compound 739, (2S,5R)-2-(5-((1-guanidinocyclopropyl)methyl)-1,3,4-oxadiazol-2-yl)-7-oxo-1,6-diazabicyclo[3.2.1]octan-6-yl hydrogen sulfate]	more active than Avibactam	more active than Avibactam
O=C1N2C[C@@H](CC[C@H]2c2nnc([C@H]3[C@@H]4CNC[C@@H]43)o2)N1OS(=O)(=O)O [Compound 740, (2S,5R)-2-(5-(3-azabicyclo[3.1.0]hexan-6-yl)-1,3,4-oxadiazol-2-yl)-7-oxo-1,6-diazabicyclo[3.2.1]octan-6-yl hydrogen sulfate]	more active than Avibactam	more active than Avibactam
N=C(N)N1CC(Cc2nnc([C@@H]3CC[C@@H]4CN3C(=O)N4OS(=O)(=O)O)o2)C1 [Compound 741, (2S,5R)-2-(5-((1-carbamimidoylazetidin-3-yl)methyl)-1,3,4-oxadiazol-2-yl)-7-oxo-1,6-diazabicyclo[3.2.1]octan-6-yl hydrogen sulfate]	more active than Avibactam	more active than Avibactam
